Test results from patent publication US7977348B2, “Polymorphic forms of imatinib mesylate and processes for preparation of novel crystalline forms as well as amorphous and form α” (Sicor Inc., priority 2006, dated 2011).

Assays:
[1] = Tablet pressing followed by PXRD analysis of the solid form; assay type: physicochemical; conditions: 200 mg tablet with 86 mg imatinib mesylate substance and excipients
Procedure: XRD diffraction was performed on X-Ray powder diffractometer: Philips X'pert Pro powder diffractometer, Cu-tube, scanning parameters: CuKα radiation, λ=1.5418 Å. Continuous scan at a rate of: 0.02° 2theta/0.3 sec.
Form V, having the main PXRD peaks at 9.9, 11.7, 13.3, 16.6, and 22.1±0.2 degrees two-theta, and all the components presented in the below table were weighed together and mixed to obtain a tablet.
Form X, having the main PXRD peaks at 6.0, 8.6, 11.4, 14.2, and 18.3±0.2 degrees two-theta, and all the components presented in the below table were weighed together and mixed to obtain a tablet.
Amorphous Imatinib mesylate and all the components presented in the below table were weighed together and mixed to obtain a tablet.

[2] = Moisture sensitivity / hygroscopicity of the solid phase noted during drying; assay type: physicochemical; conditions: filter cake dried under nitrogen stream
Procedure: Imatinib base (3 g, 0.0061 mole) was suspended in dry ethanol (60 ml). The suspension was cooled to −40° C. and then an ethanol-solution of methanesulfonic acid (0.591 g in 3.59 ml; 0.0061 mole) was added at once. Exactly after 5 min of stirring at −40° C. the seeding crystal (Form IV, 0.1 g) was put into the suspension. The stirring was maintained for additional 25 minutes in the temperature range from −40° C. to −35° C. Then the suspension was let to stay in freezer at −28° C. for 14 hours. In the course of standing, the major part of crystalline phase was created—important requirement is absence of motion. After standing the suspension was diluted with MTBE (50 ml) and crystalline product was filtered. […] Imatinib mesylate (Form IV) was obtained (3.61 g; yield: 90.1%).
Imatinib base (75 g, 0.152 mole) was placed into double-jacketed glass-reactor and suspended with water-1,3-dioxolane mixture (37.5 ml: 712.5 ml). The content of the reactor was kept (for all the time) under gentle nitrogen stream. The temperature was adjusted at 20° C., undiluted methanesulphonic acid (14.21 g, 0.148 mole) was added (at once or dropwise during a few minutes). The two-phase liquid was stirred cca 50 min at 20° C. […] The drying process was monitored by measuring LOD (loss on drying)—it was finished when LOD reached 11-12%. […]

[3] = Particle size of the crystalline form; assay type: physicochemical
[4] = Stability of the crystalline form under pressure and under heating; conditions: solid form

SMILES | solid form found by PXRD after the tablet was pressed [1] | hygroscopicity / moisture sensitivity of solid phase [2] | particle size [3] | stability under pressure [4] | stable under heating up to a temperature of [4] [°C]
CS(=O)(=O)O.Cc1ccc(NC(=O)c2ccc(CN3CCN(C)CC3)cc2)cc1Nc1nccc(-c2cccnc2)n1 [Amorphous Imatinib mesylate, 4-(4-methylpiperazin-1-ylmethyl)-N-[4-methyl-3-[(4-pyrinin-3-yl)pyrimidin-2-yloamino]phenyl]benzamide mesylate, reference compound] | retaining the amorphous form | – | – | – | –
CS(=O)(=O)O.Cc1ccc(NC(=O)c2ccc(CN3CCN(C)CC3)cc2)cc1Nc1nccc(-c2cccnc2)n1 [Form IV, 4-(4-methylpiperazin-1-ylmethyl)-N-[4-methyl-3-[(4-pyrinin-3-yl)pyrimidin-2-yloamino]phenyl]benzamide mesylate] | – | moisture sensitive | less than 100 microns | – | –
CS(=O)(=O)O.Cc1ccc(NC(=O)c2ccc(CN3CCN(C)CC3)cc2)cc1Nc1nccc(-c2cccnc2)n1 [Form V, 4-(4-methylpiperazin-1-ylmethyl)-N-[4-methyl-3-[(4-pyrinin-3-yl)pyrimidin-2-yloamino]phenyl]benzamide mesylate] | belong to form V | – | – | stable under pressure | ≤ 80
CS(=O)(=O)O.Cc1ccc(NC(=O)c2ccc(CN3CCN(C)CC3)cc2)cc1Nc1nccc(-c2cccnc2)n1 [Form VI, 4-(4-methylpiperazin-1-ylmethyl)-N-[4-methyl-3-[(4-pyrinin-3-yl)pyrimidin-2-yloamino]phenyl]benzamide mesylate] | – | very hydroscopic | less than 100 microns | – | –

Results, then the molecule that gave them:

solid form found by PXRD after the tablet was pressed [1] | hygroscopicity / moisture sensitivity of solid phase [2] | particle size [3] | stability under pressure [4] | stable under heating up to a temperature of [4] [°C] | SMILES
– | – | less than 100 microns | – | – | CS(=O)(=O)O.Cc1ccc(NC(=O)c2ccc(CN3CCN(C)CC3)cc2)cc1Nc1nccc(-c2cccnc2)n1 [Form VII, 4-(4-methylpiperazin-1-ylmethyl)-N-[4-methyl-3-[(4-pyrinin-3-yl)pyrimidin-2-yloamino]phenyl]benzamide mesylate]
belong to form X | – | less than 100 microns | – | – | CS(=O)(=O)O.Cc1ccc(NC(=O)c2ccc(CN3CCN(C)CC3)cc2)cc1Nc1nccc(-c2cccnc2)n1 [Form X, 4-(4-methylpiperazin-1-ylmethyl)-N-[4-methyl-3-[(4-pyrinin-3-yl)pyrimidin-2-yloamino]phenyl]benzamide mesylate]
